Legend:
KCNQ2/3 (KCNQ3 subunit) = molecular target: T1, KCNQ2/3 (KCNQ3 subunit) (Homo sapiens, UniProt O43525+O43526); assay: two-electrode voltage clamp in Xenopus oocytes, dose response at -70 mV; WL/WL and RA/RA mutants insensitive; type: cell-based
T1 construct: human KCNQ2/3 heteromeric channel expressed in Xenopus oocytes; with KCNQ2

KCNQ1 = molecular target: T2, KCNQ1 (Homo sapiens, UniProt P51787); assay: two-electrode voltage clamp in Xenopus oocytes, […] quercetin; type: cell-based
T2 construct: homomeric human KCNQ1 expressed in Xenopus oocytes
T2 sequence (P51787 1-676): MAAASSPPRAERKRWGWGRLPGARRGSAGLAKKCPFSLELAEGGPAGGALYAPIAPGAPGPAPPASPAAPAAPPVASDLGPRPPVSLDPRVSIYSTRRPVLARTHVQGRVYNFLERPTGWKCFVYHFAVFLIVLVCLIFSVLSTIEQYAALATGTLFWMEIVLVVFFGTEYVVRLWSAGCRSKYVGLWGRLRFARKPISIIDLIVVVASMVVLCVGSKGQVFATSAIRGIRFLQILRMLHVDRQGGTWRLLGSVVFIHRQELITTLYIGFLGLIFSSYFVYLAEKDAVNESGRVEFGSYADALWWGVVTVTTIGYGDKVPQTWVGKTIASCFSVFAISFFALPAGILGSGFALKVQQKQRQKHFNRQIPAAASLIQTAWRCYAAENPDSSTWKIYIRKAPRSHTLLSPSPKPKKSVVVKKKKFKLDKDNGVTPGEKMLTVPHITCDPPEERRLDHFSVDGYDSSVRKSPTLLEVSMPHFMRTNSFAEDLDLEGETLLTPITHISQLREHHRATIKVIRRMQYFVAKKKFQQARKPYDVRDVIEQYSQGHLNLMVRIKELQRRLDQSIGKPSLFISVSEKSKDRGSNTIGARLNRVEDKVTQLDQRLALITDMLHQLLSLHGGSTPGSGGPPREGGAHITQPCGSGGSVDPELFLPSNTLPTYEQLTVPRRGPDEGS

T1 sequence (O43525 whole entry): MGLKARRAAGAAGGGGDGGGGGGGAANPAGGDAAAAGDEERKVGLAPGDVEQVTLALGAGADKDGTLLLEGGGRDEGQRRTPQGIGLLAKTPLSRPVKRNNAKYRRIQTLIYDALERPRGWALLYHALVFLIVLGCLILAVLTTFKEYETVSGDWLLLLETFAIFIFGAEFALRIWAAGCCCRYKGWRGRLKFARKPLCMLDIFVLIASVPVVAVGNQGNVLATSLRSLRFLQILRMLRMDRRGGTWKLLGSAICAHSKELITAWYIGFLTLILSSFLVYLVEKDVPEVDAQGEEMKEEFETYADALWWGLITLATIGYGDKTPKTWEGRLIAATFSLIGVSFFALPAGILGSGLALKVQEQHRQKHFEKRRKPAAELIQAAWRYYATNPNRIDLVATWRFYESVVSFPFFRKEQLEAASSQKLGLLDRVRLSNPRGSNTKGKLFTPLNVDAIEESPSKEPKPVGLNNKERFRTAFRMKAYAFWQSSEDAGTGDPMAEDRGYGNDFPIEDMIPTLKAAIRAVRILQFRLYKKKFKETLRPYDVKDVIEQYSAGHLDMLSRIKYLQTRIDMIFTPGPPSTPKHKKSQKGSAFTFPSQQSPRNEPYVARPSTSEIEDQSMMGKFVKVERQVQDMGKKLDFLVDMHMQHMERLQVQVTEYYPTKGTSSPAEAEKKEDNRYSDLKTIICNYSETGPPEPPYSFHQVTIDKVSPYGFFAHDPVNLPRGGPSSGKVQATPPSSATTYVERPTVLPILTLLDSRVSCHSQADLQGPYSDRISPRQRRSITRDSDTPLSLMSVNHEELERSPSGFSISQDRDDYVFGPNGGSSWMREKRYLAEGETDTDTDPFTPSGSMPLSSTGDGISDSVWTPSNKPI
T1 sequence (O43526 whole entry): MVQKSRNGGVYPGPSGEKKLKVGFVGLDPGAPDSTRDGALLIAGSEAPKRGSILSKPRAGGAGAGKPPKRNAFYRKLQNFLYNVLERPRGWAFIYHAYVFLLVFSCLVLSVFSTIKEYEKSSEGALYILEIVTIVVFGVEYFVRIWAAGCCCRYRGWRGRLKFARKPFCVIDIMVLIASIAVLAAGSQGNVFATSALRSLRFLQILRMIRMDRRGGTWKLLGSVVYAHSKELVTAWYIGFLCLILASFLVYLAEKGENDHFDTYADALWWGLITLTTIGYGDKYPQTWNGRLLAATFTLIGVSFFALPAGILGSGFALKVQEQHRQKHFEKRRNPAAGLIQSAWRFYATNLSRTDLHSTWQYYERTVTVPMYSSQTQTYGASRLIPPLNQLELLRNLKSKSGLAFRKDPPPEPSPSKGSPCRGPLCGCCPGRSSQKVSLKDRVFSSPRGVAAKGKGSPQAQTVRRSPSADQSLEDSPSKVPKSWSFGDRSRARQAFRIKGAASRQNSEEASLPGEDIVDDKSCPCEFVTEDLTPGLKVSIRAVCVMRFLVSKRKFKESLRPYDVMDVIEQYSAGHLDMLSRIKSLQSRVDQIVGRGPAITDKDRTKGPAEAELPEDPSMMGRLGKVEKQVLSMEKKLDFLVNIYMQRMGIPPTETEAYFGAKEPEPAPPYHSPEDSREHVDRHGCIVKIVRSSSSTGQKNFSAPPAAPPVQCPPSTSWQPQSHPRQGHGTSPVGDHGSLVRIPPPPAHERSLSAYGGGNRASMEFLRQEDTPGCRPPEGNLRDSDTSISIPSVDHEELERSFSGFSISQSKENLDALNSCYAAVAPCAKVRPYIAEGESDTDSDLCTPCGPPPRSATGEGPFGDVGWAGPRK

Row | Structure (SMILES) | EC50 (KCNQ2/3 (KCNQ3 subunit)) | two-electrode voltage clamp in Xenopus oocytes, 100 uM quercetin (KCNQ1)
1 | O=C(O)c1cc(O)c(O)c(O)c1 [gallic acid] | 560 ± 3 nM | 
2 | O=c1c(O)c(-c2ccc(O)c(O)c2)oc2cc(O)cc(O)c12 [quercetin] |  | quercetin enhances both activation and inactivation of homomeric KCNQ1 channels, inducing visible voltage-dependent decay at depolarized potentials
